Data on 18 compounds can be found in ChEMBL document CHEMBL3091317, “Inhibition of cholinesterase and monoamine oxidase-B activity by Tacrine-Homoisoflavonoid hybrids” (Bioorg Med Chem, 2013).

The source made the active and inactive calls. The rule behind the calls is not given here.

Data set [1] concerns the target Acetylcholinesterase (Electrophorus electricus, UniProt O42275).
Description: Inhibition of electric eel AChE using acetylthiocholine chloride as substrate preincubated for 15 mins followed by substrate addition measured every 1 min by Ellman method
Data set [2] is described as follows: in vitro. Conditions: PAMPA.
Description: Permeability of the compound at 100 mg/mL after 10 hrs by PAMPA
In data set [3] the target is T1, Amine oxidase [flavin-containing] B (Homo sapiens, UniProt P27338).
T1 sequence (P27338 whole entry): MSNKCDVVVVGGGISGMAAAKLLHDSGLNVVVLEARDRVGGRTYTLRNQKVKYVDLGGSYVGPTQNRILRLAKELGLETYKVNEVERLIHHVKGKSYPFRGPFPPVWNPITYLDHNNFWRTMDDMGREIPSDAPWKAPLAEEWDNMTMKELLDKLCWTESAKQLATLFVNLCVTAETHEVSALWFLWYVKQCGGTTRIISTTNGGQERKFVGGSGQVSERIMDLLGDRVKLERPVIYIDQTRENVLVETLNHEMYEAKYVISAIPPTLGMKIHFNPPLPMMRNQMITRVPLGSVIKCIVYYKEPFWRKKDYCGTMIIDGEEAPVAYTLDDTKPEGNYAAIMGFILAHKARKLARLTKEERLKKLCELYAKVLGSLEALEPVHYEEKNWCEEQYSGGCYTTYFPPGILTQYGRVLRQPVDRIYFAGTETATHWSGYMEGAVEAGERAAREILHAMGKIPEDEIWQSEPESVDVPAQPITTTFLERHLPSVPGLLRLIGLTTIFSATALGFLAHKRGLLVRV
Description: Inhibition of human recombinant MAO-B using benzylamine as substrate preincubated for 15 mins under dark condition followed by substrate addition measured after 20 mins by fluorescence assay

Data set [4] deals with Cholinesterase (Equus caballus, UniProt P81908).
Description: Inhibition of horse serum BuChE using butylthiocholine chloride as substrate preincubated for 15 mins followed by substrate addition measured every 1 min by Ellman method
Data set [5] deals with T2, Amine oxidase [flavin-containing] A (Homo sapiens, UniProt P21397).
T2 sequence (P21397 whole entry): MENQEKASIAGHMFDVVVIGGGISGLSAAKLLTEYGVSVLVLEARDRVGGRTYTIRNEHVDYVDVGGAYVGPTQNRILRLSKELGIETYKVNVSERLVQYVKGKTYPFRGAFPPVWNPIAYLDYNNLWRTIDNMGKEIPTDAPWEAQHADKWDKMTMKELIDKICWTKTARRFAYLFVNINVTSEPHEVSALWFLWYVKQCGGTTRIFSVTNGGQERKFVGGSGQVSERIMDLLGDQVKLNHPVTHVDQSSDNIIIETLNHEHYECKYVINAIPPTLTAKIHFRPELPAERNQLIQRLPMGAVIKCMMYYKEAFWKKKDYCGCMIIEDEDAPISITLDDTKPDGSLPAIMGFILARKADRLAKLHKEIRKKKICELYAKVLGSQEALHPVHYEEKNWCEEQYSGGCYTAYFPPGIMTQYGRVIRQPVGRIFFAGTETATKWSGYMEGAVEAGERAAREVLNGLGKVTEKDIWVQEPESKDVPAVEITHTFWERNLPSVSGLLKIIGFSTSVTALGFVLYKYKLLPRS
The conditions noted are these: 20 min, read-out: INH.
Description: Inhibition of human recombinant MAO-A using p-tyramine as substrate assessed as formation of H2O2 at 100 uM preincubated for 15 mins under dark condition followed by substrate addition measured after 20 mins by fluorescence assay relative to control

Data set [6] has as its target T1, Amine oxidase [flavin-containing] B. As to the kind of experiment: Inhibition of human recombinant MAO-B using benzylamine as substrate at 20 uM preincubated for 15 mins under dark condition followed by substrate addition measured after 20 mins by fluorescence assay.
Data set [7] has as its target T3, Acetylcholinesterase (Homo sapiens, UniProt P22303). The data set is described as follows: Inhibition of human erythrocytic AChE using acetylthiocholine chloride as substrate preincubated for 15 mins followed by substrate addition measured every 1 min by Ellman method.
The target of data set [8] is T1, Amine oxidase [flavin-containing] B. As to the kind of experiment: Inhibition of human recombinant MAO-B at 1 uM incubated for 15 mins prior to washing relative to control. Conditions: 0.25 h.
The target is the same in data set [9]. As to the kind of experiment: Irreversible inhibition of human recombinant MAO-B at 1 uM preincubated for 15 mins followed by repeated washing by centrifugation-ultrafiltration method relative to control.
For data set [10] the target is unchanged. As to the kind of experiment: Irreversible inhibition of human recombinant MAO-B at 400 nM preincubated for 15 mins followed by repeated washing by centrifugation-ultrafiltration method relative to control.
Data set [11] addresses Acetylcholinesterase (Electrophorus electricus) (UniProt O42275). The data set is described as follows: Mixed-type inhibition of electric eel AChE using acetylthiocholine chloride as substrate assessed as increase in Km at 60 to 100 nM preincubated for 15 mins followed by substrate addition by Lineweaver-Burk plot analysis.
Data set [12] concerns the target T1, Amine oxidase [flavin-containing] B. As to the kind of experiment: Inhibition of human recombinant MAO-B at 400 nM incubated for 15 mins prior to washing relative to control. The conditions noted are these: 0.25 h.
Data set [13] concerns the target T3, Acetylcholinesterase. As to the kind of experiment: Inhibition of AChE (unknown origin)-induced beta-amyloid aggregation.
For data set [14], the target named is Acetylcholinesterase (Electrophorus electricus) (UniProt O42275). The data set is described as follows: Mixed-type inhibition of electric eel AChE using acetylthiocholine chloride as substrate assessed as decrease in Vmax at 60 to 100 nM preincubated for 15 mins followed by substrate addition by Lineweaver-Burk plot analysis.
Sequence of Acetylcholinesterase (Electrophorus electricus) (O42275 24-633 limits assumed): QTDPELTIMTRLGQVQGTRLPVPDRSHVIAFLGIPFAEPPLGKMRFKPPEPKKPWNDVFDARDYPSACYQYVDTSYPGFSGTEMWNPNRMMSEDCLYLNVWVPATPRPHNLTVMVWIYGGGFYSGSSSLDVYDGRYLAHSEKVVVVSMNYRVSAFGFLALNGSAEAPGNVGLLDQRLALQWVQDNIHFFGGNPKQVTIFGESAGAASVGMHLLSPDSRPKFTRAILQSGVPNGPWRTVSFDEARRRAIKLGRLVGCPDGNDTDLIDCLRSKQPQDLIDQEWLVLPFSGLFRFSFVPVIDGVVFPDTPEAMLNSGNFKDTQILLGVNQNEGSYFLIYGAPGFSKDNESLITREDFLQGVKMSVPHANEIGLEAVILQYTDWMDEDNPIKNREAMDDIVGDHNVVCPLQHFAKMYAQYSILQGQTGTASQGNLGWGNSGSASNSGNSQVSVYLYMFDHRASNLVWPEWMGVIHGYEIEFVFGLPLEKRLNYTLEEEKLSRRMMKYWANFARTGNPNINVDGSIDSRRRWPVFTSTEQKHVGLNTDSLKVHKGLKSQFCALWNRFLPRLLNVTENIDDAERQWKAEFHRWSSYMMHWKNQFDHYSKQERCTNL

Sequence of Acetylcholinesterase (Electrophorus electricus, UniProt O42275) (O42275 whole entry): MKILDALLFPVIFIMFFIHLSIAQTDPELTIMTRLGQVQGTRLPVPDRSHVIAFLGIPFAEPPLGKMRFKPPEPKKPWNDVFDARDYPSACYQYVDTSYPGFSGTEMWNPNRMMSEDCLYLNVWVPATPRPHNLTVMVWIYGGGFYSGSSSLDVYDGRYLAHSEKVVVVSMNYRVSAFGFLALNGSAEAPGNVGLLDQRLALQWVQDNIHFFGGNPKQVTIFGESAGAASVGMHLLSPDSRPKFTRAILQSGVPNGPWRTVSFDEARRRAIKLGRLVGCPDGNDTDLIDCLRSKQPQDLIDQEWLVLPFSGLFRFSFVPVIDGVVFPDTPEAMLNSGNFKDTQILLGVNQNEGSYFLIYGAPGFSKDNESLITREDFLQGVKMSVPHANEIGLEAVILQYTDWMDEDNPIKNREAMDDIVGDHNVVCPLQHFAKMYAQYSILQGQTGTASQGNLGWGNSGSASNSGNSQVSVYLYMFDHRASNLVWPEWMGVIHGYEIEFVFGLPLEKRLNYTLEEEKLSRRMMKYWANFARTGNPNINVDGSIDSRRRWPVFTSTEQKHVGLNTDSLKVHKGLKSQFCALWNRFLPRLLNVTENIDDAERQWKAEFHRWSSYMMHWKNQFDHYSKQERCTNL
Sequence of Cholinesterase (P81908 whole entry): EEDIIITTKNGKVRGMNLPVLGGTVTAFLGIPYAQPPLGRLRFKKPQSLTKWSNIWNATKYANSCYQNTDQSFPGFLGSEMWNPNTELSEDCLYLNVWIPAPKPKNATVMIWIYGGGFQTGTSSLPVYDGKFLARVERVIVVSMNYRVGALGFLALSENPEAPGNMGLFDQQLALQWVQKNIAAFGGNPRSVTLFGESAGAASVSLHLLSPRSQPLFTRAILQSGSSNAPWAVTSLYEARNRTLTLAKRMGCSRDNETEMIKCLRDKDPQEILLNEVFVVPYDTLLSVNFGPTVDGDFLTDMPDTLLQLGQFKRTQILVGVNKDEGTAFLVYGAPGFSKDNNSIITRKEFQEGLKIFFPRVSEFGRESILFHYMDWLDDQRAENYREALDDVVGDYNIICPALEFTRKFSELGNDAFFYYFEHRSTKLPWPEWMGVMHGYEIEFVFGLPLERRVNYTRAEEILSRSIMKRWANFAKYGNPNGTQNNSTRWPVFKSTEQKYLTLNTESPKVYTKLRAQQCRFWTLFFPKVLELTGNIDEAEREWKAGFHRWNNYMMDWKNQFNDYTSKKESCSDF
T3 sequence (P22303 whole entry): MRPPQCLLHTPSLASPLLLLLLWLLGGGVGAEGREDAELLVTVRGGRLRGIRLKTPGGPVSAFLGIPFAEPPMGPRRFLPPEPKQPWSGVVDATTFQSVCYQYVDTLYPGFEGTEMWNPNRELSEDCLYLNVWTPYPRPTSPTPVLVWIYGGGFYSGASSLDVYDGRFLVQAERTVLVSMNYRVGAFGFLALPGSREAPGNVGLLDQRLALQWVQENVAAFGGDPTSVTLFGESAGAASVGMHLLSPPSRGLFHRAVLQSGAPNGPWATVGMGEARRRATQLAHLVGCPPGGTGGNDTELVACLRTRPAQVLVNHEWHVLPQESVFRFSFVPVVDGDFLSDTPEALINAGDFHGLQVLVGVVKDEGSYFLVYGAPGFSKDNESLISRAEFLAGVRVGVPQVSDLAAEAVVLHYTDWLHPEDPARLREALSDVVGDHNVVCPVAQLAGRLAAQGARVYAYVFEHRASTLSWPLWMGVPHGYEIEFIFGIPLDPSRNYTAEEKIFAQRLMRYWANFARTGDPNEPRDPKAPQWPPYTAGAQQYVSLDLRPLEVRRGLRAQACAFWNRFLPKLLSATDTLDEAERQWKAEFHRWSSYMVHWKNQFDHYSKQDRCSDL

Turning to `COc1ccc(CC2COc3cc(OCCCCCCNc4c5c(nc6ccccc46)CCCC5)ccc3C2=O)cc1` (centres undefined), the IC50 in [1] was determined as 91.7 nM; in data set [3], 1110 nM; in data set [4] it was 27.4 nM. The Papp at 10 h, 100 mg/mL in data set [2] came to 2.8 ×10⁻⁶ cm/s. For the same compound, the inhibition at 100 µM in data set [5] was found to be 78.2%.

Take `CCN(CC)c1ccc(/C=C2\COc3cc(OCCCCCCNc4c5c(nc6ccccc46)CCCC5)ccc3C2=O)cc1`: the results for the IC50 in [1] and in [4] were 693 nM and 235 nM, respectively. Besides, in data set [6], the “inhibition (INH)” value is on record as “Not Active”. The inhibition at 100 µM in data set [5] was 22.4%.

For `O=C1/C(=C/c2ccc(Cl)cc2)COc2cc(OCCCCCCNc3c4c(nc5ccccc35)CCCC4)ccc21`, the half-inhibitory concentration (IC50) in data set [1] is 101 nM; in data set [3] it was 15400 nM; in data set [4], 44.5 nM. Besides, the apparent permeability coefficient (Papp) at 10 h, 100 mg/mL in data set [2] was found to be 1.1 ×10⁻⁶ cm/s. Besides, the inhibition at 100 µM in data set [5] is 23.3%.

For the compound `COc1ccc(/C=C2\COc3cc(OCCCCCCCCNc4c5c(nc6ccccc46)CCCC5)ccc3C2=O)cc1`, the IC50 was determined as 68.5 nM in [1], 518 nM in [3], 122 nM in [7] and 93.1 nM in data set [4]. Besides, the apparent permeability (Papp) at 10 h, 100 mg/mL in data set [2] came to 4.9 ×10⁻⁶ cm/s. Further, the inhibition at 100 µM in data set [5] is 64.8%.

For `O=C1/C(=C/c2ccc(F)cc2)COc2cc(OCCCCCCNc3c4c(nc5ccccc35)CCCC4)ccc21`, the IC50 was found to be 70.1 nM in data set [1], 1090 nM in [3], 105 nM in data set [7] and 44.2 nM in [4]. The compound further had a Papp at 10 h, 100 mg/mL in [2] of 4 ×10⁻⁶ cm/s. Moreover, the inhibition at 100 µM in data set [5] turned out to be 58.4%.

For `COc1ccc(/C=C2\COc3cc(OCCCCCCCCCNc4c5c(nc6ccccc46)CCCC5)ccc3C2=O)cc1`, the half-inhibitory concentration (IC50) was 169 nM in data set [1], 437 nM in data set [3] and 30.9 nM in [4]. Besides, the inhibition at 100 µM in data set [5] came to 60.2%.

As to `COc1ccc(/C=C2\COc3cc(OCCCCCCCCNc4c5c(nc6cc(Cl)ccc46)CCCC5)ccc3C2=O)cc1`, the IC50 in data set [1] was 188 nM; in [3], 1560 nM; in [4] it was 612 nM. For the same compound, the inhibition at 100 µM in data set [5] was 33.1%.

For `COc1ccc(/C=C2\COc3cc(OCCCCCCNc4c5c(nc6ccccc46)CCCC5)ccc3C2=O)cc1OC`, the figures for the IC50 in [1], in data set [3] and in data set [4] were 117 nM, 19700 nM and 34.7 nM, respectively. In addition, the inhibition at 100 µM in data set [5] amounted to 51.6%.

Take `COc1ccc(/C=C2\COc3cc(OCCCCCCCCCCNc4c5c(nc6ccccc46)CCCC5)ccc3C2=O)cc1`: the IC50 in data set [1] was 888 nM; in data set [3] it was 3430 nM; in data set [4], 6.2 nM. In data set [5], the inhibition at 100 µM stood at 69.6%.

`COc1ccccc1/C=C1\COc2cc(OCCCCCCNc3c4c(nc5ccccc35)CCCC4)ccc2C1=O`: the concentration for half-maximal inhibition (IC50) worked out at 151 nM in [1], 1790 nM in data set [3] and 29.9 nM in data set [4]. In addition, the inhibition at 100 µM in data set [5] was 70.3%.

As to `COc1cc(/C=C2\COc3cc(OCCCCCCNc4c5c(nc6ccccc46)CCCC5)ccc3C2=O)cc(OC)c1OC`, the half-maximal inhibitory concentration (IC50) in data set [1] was 106 nM; in [4] it was 109 nM. The “inhibition (INH)” value in data set [6] was “Not Active”. Moreover, in data set [5], the inhibition at 100 µM was determined as 25.7%.

`Cc1ccc(/C=C2\COc3cc(OCCCCCCNc4c5c(nc6ccccc46)CCCC5)ccc3C2=O)cc1`: the figures for the 50% inhibitory concentration (IC50) in data set [1], in data set [3] and in data set [4] were 129 nM, 1240 nM and 54.6 nM, respectively. The inhibition at 100 µM in data set [5] stood at 60.5%.

As to `CN(C)c1ccc(/C=C2\COc3cc(OCCCCCCNc4c5c(nc6ccccc46)CCCC5)ccc3C2=O)cc1`, the IC50 in [1] was 115 nM; in [3], 1030 nM; in data set [4], 65.7 nM. The inhibition at 100 µM in data set [5] was found to be 31.5%.

On to `COc1ccc(/C=C2\COc3cc(OCCCCCCNc4c5c(nc6ccccc46)CCCC5)ccc3C2=O)cc1`, for which the inhibition at 1 µM in [8] was found to be 78.4%; in data set [9], 67.5%. The half-inhibitory concentration (IC50) in [1] stood at 67.9 nM; in [3] it was 401 nM; in data set [7], 157 nM; in data set [4] it was 33 nM. Further, the apparent permeability coefficient (Papp) at 10 h, 100 mg/mL in [2] was 6.8 ×10⁻⁶ cm/s. Moreover, the inhibition at 0.4 µM in [10] amounted to 33.5%; in [12], 47.1%. The inhibition result in data set [11], in [13] and in data set [14] was “Active” each time. Moreover, the inhibition at 100 µM in data set [5] amounted to 48.3%.

For the compound `COc1ccc(/C=C2\COc3cc(OCCCCCCNc4c5c(nc6cc(Cl)ccc46)CCCC5)ccc3C2=O)cc1`, the concentration for half-maximal inhibition (IC50) in data set [1] is 123 nM; in data set [3], 1360 nM; in [4], 25.9 nM. Also, the inhibition at 100 µM in data set [5] worked out at 15.3%.

Turning to `COc1ccc(/C=C2\COc3cc(OCCCCCNc4c5c(nc6ccccc46)CCCC5)ccc3C2=O)cc1`, the half-inhibitory concentration (IC50) amounted to 78.3 nM in data set [1], 1160 nM in data set [3], 98 nM in data set [7] and 23.6 nM in [4]. In addition, the Papp at 10 h, 100 mg/mL in [2] turned out to be 6.6 ×10⁻⁶ cm/s. Besides, in [5], the inhibition at 100 µM came to 58.4%.

For `COc1cccc(/C=C2\COc3cc(OCCCCCCNc4c5c(nc6ccccc46)CCCC5)ccc3C2=O)c1`, the concentration for half-maximal inhibition (IC50) came out at 142 nM in [1], 2200 nM in [3] and 47.1 nM in data set [4]. Also, the inhibition at 100 µM in [5] was determined as 54.1%.

Turning to `COc1ccc(/C=C2\COc3cc(O)ccc3C2=O)cc1` [BONDUCELLIN], the IC50 in data set [1] was > 100000 nM; in [3], 1060 nM; in data set [4], > 100000 nM. In addition, in data set [5], the inhibition at 100 µM stood at 24.1%.
